From PMC11802874, “The hypolipidemic effect of MI-883, the combined CAR agonist/ PXR antagonist, in diet-induced hypercholesterolemia model” (Nature Communications, 2025)
Where “and” joins values, the source holds several entries; their conditions need not be identical. Equal entries are not always repeated.

Key:
ERα = ERα (Homo sapiens, UniProt P03372); experiment: Luciferase reporter gene assay ERα, HepG2; assay type: cell-based
Source text: (see Supplementary Chapter 7).
Thank you for the insightful question and comment. We have corrected the sentence to read:
Thank you for the idea. Yes, we conducted luciferase reporter assays in antagonistic "mode" for several nuclear receptors using their prototype ligands in the revised manuscript (Figure R7).
This information is included in the Supplementary Information.
Treatment with 5 and 10 µM
(1 picture or pasted object on this page, not shown here) […]
nM dexamethasone, 10 µM GW3965 (LXRα agonist), and 10 µM estradiol. Data are presented as a […]

[1] = biological target: aryl hydrocarbon receptor (AhR) (Homo sapiens, UniProt P35869); experiment: Luciferase reporter gene assay AhR (p1A1-luc), HepG2
Chain of aryl hydrocarbon receptor (AhR) (P35869 11-848): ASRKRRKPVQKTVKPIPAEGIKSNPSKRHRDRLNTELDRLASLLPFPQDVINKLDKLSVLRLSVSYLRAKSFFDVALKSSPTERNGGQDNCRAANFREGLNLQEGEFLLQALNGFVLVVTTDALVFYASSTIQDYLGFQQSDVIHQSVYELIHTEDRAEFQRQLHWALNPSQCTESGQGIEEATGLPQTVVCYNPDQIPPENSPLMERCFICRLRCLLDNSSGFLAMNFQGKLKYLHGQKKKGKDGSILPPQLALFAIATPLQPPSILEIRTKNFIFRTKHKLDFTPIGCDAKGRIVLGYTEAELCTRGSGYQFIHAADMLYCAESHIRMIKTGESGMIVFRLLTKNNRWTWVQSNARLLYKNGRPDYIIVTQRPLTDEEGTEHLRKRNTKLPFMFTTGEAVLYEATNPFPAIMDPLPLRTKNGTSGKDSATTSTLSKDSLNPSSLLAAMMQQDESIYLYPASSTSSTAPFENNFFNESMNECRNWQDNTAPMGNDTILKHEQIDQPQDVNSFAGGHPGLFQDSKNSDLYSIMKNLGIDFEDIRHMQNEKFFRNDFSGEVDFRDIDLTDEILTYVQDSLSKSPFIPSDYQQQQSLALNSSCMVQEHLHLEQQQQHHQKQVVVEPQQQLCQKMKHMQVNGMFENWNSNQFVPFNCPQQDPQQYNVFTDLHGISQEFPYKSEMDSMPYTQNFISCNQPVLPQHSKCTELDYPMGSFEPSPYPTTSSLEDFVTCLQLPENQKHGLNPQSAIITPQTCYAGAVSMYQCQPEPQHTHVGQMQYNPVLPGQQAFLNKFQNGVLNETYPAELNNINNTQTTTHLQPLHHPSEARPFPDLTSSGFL
Source text: (§1) The luciferase reporter gene assays for FXR, LXRα, LXRβ, THα, GRα, PPARα, PPARδ/β, PPARγ, AhR, VD, ERα, ERβ and mouse Car are described in our recent paper[19]
(§2) Gal4-LBD constructs of tested nuclear receptors have been used together with pGL4.31[luc2P/GAL4UAS/Hygro] luciferase reporter construct and pRL-TK Renilla expression vector (both from Promega, Hercules, USA) in HepG2 cells transfected with Lipofectamine 2000 or 3000 reagents. For GRα and FXR receptors, full-length expression vectors have been used with pGRE-luc or pFXRE-luc luciferase constructs. For the aryl hydrocarbon receptor (AhR), p1A1-luc construct was used with only pRL-TK vector for transfection normalization. A dual reporter assay (Promega, Hercules, USA) was used to analyze both firefly and Renilla luciferase activities.
(§3) Gal4-LBD constructs of tested nuclear receptors have been used together with pGL5-luc luciferase reporter construct and pRL-TK Renilla expression vector in HepG2 cells transfected with Lipofectamine 2000 or 3000 reagents. For GRα and FXR receptors, full-length expression vectors have been used with pGRE-luc or pFXRE-luc luciferase constructs. For the aryl hydrocarbon receptor (AhR), p1A1-luc construct was used with only pRL-TK vector for transfection normalization. […] Bars represent means±S.D. (n=3).

[2] = tested on: humanized PXR-CAR-CYP3A4/3A7 mice, plasma; experiment: Plasma metabolomics (HFD study); assay type: in vivo, mouse
Procedure: Metabolomic plasma analysis was performed using plasma samples from male PXR/CAR/CYP3A4 mice (n=5) treated with MI-883 in the proof-of-concept study involving a high-fat diet^23. Plasma samples were prepared on ice, and each sample was separated into two 20 μl aliquots. All prepared aliquots were then frozen and stored at −80°C until analysis. Plasma aliquots were thawed, and protein precipitation was performed by adding 60 μl of a mixture containing 40% methanol, 40% acetonitrile, and 20% water. Samples were mixed, incubated for 12 hours at -20°C, and then centrifuged at 20,000 g for 10 minutes. The supernatants were collected for analysis by LC-MS/MS. A pooled quality control sample was prepared by mixing 10 μl from each sample. LC separation was performed on an iHILIC® Classic column (iHILIC®-(P) Classic, HILIC Column, PEEK,100x2.1mm, 5µm, 200Å, Hilicon, Umeå, Sweden) using a water/acetonitrile gradient with 10 mM ammonium formate, starting from 95% to 42% over 15 minutes in both polarities. LC-MS/MS analysis was conducted on the ID-X Orbitrap Tribrid Mass Spectrometer (ThermoFisher Scientific).

[3] = tested on: humanized PXR-CAR-CYP3A4/3A7 mice fed HFD; experiment: High-fat diet (HFD) study: weights, food intake, plasma biochemistry, histology; assay type: in vivo, mouse; set-up: BW (Fig 4b) / LW (Fig 4b) / LDL (Fig. 4e) / HDL (Fig. 4e) / TG (Fig. 4e) / Chol (Fig. 4e) / Glu (Fig. 4e) / food intake (Fig 4c) / AST / ALT / ALB / ALP / LDH / Urea / Uric acid / Fe / Bilirubin / CREZ / BW: unit not given here; conditions: for BW: FigS12c, group mean
Procedure: For experiment involving a HFD in the model of diet-induced metabolic syndrome and type 2 diabetes with hypercholesterolemia, both male and female mice at the age of 10–15 weeks were pretreated for 8 weeks with HFD (E15186 EF R/M with 30% fat, ssniff ®, Soest, Germany) containing 30.1% crude fat, 20.8% protein and 171 mg/kg of cholesterol, ad libitum (Fig. 4a). Mice were then randomly assigned to MI-883 or control groups (17 male animals per group for the control or MI-883-treated group, 15 female animals per group for control and MI-883 treated groups, respectively). They were administered via oral gavage with either MI-883 treatment (5 mg/kg, 3x per week on Mo, We, Fri) or vehicle (5%DMSO/5%PEG300/90%corn oil) while still fed with HFD. Mice were sacrificed after 4 weeks of treatment.
Mice were weighted and tissues (livers, blood, duodenum, jejunum, ileum, white fat) were removed, weighted and snap frozen in liquid nitrogen and stored at –80 °C until analysis. Blood was collected from the retro-orbital sinus of mice under isoflurane anesthesia into heparin-coated tubes (Kabe Laboratortechnik GmbH, Nümbrecht-Elsenroth, Germany) after 3 h fasting and analyzed on AU480 biochemistry analyzer (Beckman Coulter, Brea, USA). Sample preparation for bile acid and cholesterol analyses from tissues or feces is described below. One of the liver lobes was fixed in formalin, embedded in paraffin blocks, sectioned, and subjected to H&E staining. Blood was analyzed as described in Supplementary, Chapter 10.
Blood was collected from the retro-orbital sinus of mice under isoflurane anesthesia into heparin-coated tubes (Kabe Laboratortechnik GmbH, Nümbrecht-Elsenroth, Germany) after 3 hours of fasting. Blood was left for 10 minutes at room temperature, and then kept on ice until centrifugation (5,000 g at 4°C for 10 minutes). The collected plasma was stored at -80 °C until measurement. Lipoprotein levels and other plasmatic parameters were measured on an AU480 biochemistry analyzer (Beckman Coulter, Brea, USA).

VD = VD (Homo sapiens, UniProt P11473); experiment: Luciferase reporter gene assay VD receptor, HepG2
Chain of VD (P11473 127-423 limits assumed): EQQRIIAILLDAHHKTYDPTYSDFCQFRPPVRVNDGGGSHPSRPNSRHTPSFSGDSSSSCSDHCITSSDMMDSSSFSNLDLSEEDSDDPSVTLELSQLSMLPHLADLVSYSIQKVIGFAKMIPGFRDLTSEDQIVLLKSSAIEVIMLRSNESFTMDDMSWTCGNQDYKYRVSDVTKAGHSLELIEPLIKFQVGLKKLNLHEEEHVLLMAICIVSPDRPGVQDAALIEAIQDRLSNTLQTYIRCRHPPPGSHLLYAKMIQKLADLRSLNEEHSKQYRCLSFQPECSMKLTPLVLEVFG
Source text: as §1, §2, §3

[4] = FigS18c, plasma, individual animals
[5] = HFD and HCD studies (Fig. 4e, h)
[6] = HFD, MI883 HFD, individual animals
[7] = chow / vehicle / MI-883, individual animals
[8] = individual animals, MI-883 vs vehicle
[9] = normal diet, individual animals

Chain of ERα (P03372 311-547 limits assumed, species assumed): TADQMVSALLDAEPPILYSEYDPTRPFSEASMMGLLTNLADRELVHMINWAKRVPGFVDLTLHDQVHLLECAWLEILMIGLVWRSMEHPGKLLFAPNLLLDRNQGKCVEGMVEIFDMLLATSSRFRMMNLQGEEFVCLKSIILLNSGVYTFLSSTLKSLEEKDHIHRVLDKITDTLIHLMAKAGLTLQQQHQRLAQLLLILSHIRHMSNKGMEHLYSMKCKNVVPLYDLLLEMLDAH

## NC(=O)c1cc(Cn2cc(-c3c(-c4ccc(Cl)cc4)nc4cc(F)ccn34)nn2)ccc1Cl [MI-883, 2-chloro-5-((4-(2-(4-chlorophenyl)-7-fluoroimidazo[1,2-a]pyridin-3-yl)-1H-1,2,3-triazol-1-yl)methyl)benzamide]
ERα
  NRs assays: ERalpha (relative to ctrl, replicates): 0.77 and 1.06 and 0.79
ERα; 10 μM MI-883
  inhibition of estrogen receptor alpha (ERα), antagonistic mode: weak inhibitor
[1]
  NRs assays: AhR (relative to ctrl, replicates): 0.69 and 0.85 and 0.64
[2]; [4]
  Isoleucine (plasma metabolomic data): 93.5 and 119.8 and 74.2 and 56.6 and 106.4 and 73.7
  Leucine (plasma metabolomic data): 53.5 and 73.3 and 34.8 and 24.3 and 49.7 and 38.6
  Valine (plasma metabolomic data): 2968.9 and 1967.5 and 1520.8 and 1183.5 and 1942.7 and 1962.8
[2]; HFD study, male mice
  plasma 2-hydroxy-3-oxopropanoate, change: 1.595 fold
  plasma 5-aminopentanoic acid (5-aminovalerate), change: 1.375 fold
  plasma isoleucine, change: 1.638 fold
  plasma small-molecule metabolome: no significant effect
[3]; time point 0
  BW: 100
[3]; time point 3
  BW: 99.94
[3]; time point 4
  BW: 99.69
[3]; time point 7
  BW: 98.81
[3]; time point 8
  BW: 98.7
[3]; time point 9
  BW: 99.01
[3]; time point 11
  BW: 97.62
[3]; time point 14
  BW: 97.62
[3]; time point 16
  BW: 98.66
[3]; time point 18
  BW: 95.35
[3]; time point 21
  BW: 95.54
[3]; time point 25
  BW: 95.05
[3]; H&E staining
  hepatic histology, morphology, steatosis with ballooning cells: did not observe affected hepatic histology, morphology, and steatosis
[3]; HFD and HCD studies
  plasma HDL cholesterol concentrations in males: decrease
[3]; [5]
  plasma LDL cholesterol levels: systematic decrease
  total plasma cholesterol concentration: systematic decrease
[3]; HFD female, individual animals
  ALB: 24.33 and 24.2 and 23.24 and 26.55 and 24.9
  ALP: 113 and 92 and 67 and 82 and 103 and 98 and 123 and 110 and 111 and 88 and 70 and 60 and 74 and 94 and 83 and 97
  ALT: 22 and 33 and 42 and 31 and 44 and 26 and 25 and 20 and 30 and 27
  AST: 36 and 56 and 60 and 42 and 80 and 46 and 43 and 45 and 48 and 52
  Bilirubin: 1.91 and 1.99 and 1.49 and 1.73 and 2.08 and 1.88 and 2.79 and 0.89 and 1.63 and 0.8 and 1.21 and 0.66 and 1.02 and 0.93
  CREZ: 8.81 and 10.944 and 9.86 and 9.877 and 9.32 and 9.613 and 6.396
  Fe: 19.66 and 16.34 and 16.57 and 13.12 and 20.06 and 22.23 and 20.85
  LDH: 105.53 and 141.23 and 148.87 and 187.77 and 168.5 and 171.83 and 139.86 and 141.62 and 132.6 and 117.06 and 243.58 and 169.43 and 199.88 and 175.99 and 186.41 and 240.46 and 159.98
  Urea: 6.32 and 7.96 and 9.13 and 6.71 and 5.59 and 7.45 and 7.35 and 5.3
[3]; HFD, 5 mg/kg 3× per week p.o., one month
  body weight or food intake: no significant effect
[3]; HFD, after 1-month application
  liver weight (LW) and liver-to-body weight (LW/BW): increase
[3]; [6]
  ALB: 30.28 and 28.44 and 27.19 and 26.19 and 27.85 and 26.86 and 29.5 and 28.87 and 29.11 and 28.18 and 27.81 and 29.6 and 31.94 and 31.6 and 25.37 and 30.94
  ALP: 46 and 65 and 58 and 53 and 57 and 59 and 87 and 78 and 134 and 85 and 147 and 42 and 80 and 203 and 48 and 62 and 47
  ALT: 111 and 104 and 91 and 82 and 86 and 81 and 194 and 185 and 231 and 101 and 144 and 333 and 40 and 171 and 279 and 78 and 136 and 35
  AST: 61 and 103 and 71 and 75 and 84 and 65 and 111 and 106 and 115 and 97 and 60 and 215 and 57 and 86 and 96 and 62
  Bilirubin: 6.24 and 2.33 and 2.77 and 2.03 and 2.43 and 2.14 and 2.07 and 1.65 and 0.69 and 0.83 and 0.78 and 2.19 and 1.62 and 2.1 and 2.2 and 2.29 and 2.82 and 3.89
  CREZ: 6.64 and 6.515 and 6.651 and 6.864 and 6.4 and 11.788 and 9.016 and 8.705 and 10.01 and 10.479 and 10.075 and 9.458 and 9.179 and 10.214 and 7.193 and 7.711
  Fe: 25.96 and 27.35 and 19.07 and 29.46 and 21.87 and 40.46 and 33.38 and 35.58 and 29.04 and 23.68 and 27.39 and 20.96 and 37.12 and 36.65 and 34.04 and 37.51 and 32.98 and 21.67 and 30.02 and 31.93
  LDH: 198.22 and 263.31 and 253.93 and 193.25 and 209.81 and 272.82 and 399.88 and 396.59 and 572.08 and 407.53 and 224.02 and 465.2 and 571.59 and 132.99 and 401.74 and 1012.86 and 180.55 and 261.31 and 251.38 and 204.74
  Urea: 8.86 and 6.88 and 6.46 and 8.34 and 10.25 and 5.64 and 6.34 and 6.16 and 6.83 and 6.9 and 7.15 and 6.75 and 6.76 and 5.98 and 5.4
  Uric acid: 34.39 and 75.29 and 81.6 and 51.23 and 51.93 and 56.87 and 65.17 and 44.52 and 78.74 and 74.95 and 74.71 and 112.08 and 32.89 and 40.5 and 30.33 and 46.79 and 41.52 and 45.58 and 40.84
[3]; MI-883 vs vehicle line
  food intake (Fig 4c): 2.1 and 3.3 and 2.8 and 2.6 and 2.7
[3]; both studies
  triglycerides and glucose concentrations in males: did not see any significant effects
[3]; both studies (HFD, HCD)
  signs of hepatotoxicity or nephrotoxicity based on biochemical parameters: did not observe
[3]; both studies, Supplementary Fig. 11
  other plasma biochemical parameters: did not impact
[3]; [7]
  Chol (Fig. 4e): 4.25 and 4.28 and 2.95 and 3.55 and 3.29 and 4.43 and 4.16 and 4.71 and 4.02 and 3.77 and 3.86 and 4.66 and 3.96 and 4.68 and 3.68
  Glu (Fig. 4e): 10.58 and 14.95 and 11.18 and 14.52 and 13.99 and 12.86 and 13.45 and 16.77 and 19.28 and 18.71 and 17.05 and 15.9 and 14.58 and 9.64 and 14.8 and 12.42
  HDL (Fig. 4e): 3.307 and 3.291 and 2.143 and 2.747 and 3.405 and 3.464 and 3.127 and 2.59 and 3.382 and 3.348 and 3.749 and 3.32 and 3.251 and 2.944 and 3.197 and 2.432 and 3.457 and 2.752
  LDL (Fig. 4e): 0.69 and 0.66 and 0.46 and 0.49 and 0.67 and 0.52 and 0.82 and 0.7 and 1.08 and 0.75 and 0.63 and 0.85 and 1.01 and 0.81
  TG (Fig. 4e): 3.307 and 3.291 and 2.143 and 2.747 and 3.405 and 3.464 and 3.127 and 2.59 and 3.382 and 3.348 and 3.749 and 3.32 and 3.251 and 2.944 and 3.197 and 2.432 and 3.457 and 2.752
[3]; [8]
  BW (Fig 4b): 36.3 and 38.1 and 36.8 and 38.8 and 38 and 34.3 and 36.4 and 31 and 45.2 and 42 and 35.4 and 38.9 and 39.5 and 42.8 and 39.3 and 39.9 and 40 and 37 and 42.6 and 40.9 and 39.2 and 38.5
  LW (Fig 4b): 2.77 and 2.32 and 1.65 and 2.28 and 2.58 and 2.48 and 2.14 and 2.06 and 1.7 and 3.5 and 3.3 and 1.85 and 3.4 and 3.1 and 4.26 and 3.42 and 3.33 and 3.06 and 2.35 and 3.38 and 2.25 and 3.12 and 1.56
[3]; mouse, in vivo
  diarrhea: did not observe any diarrhea
[3]; [9]
  Chol (Fig. 4e): 1.85 and 1.75
  Glu (Fig. 4e): 12.37 and 16.62
  HDL (Fig. 4e): 1.205 and 1.168
  LDL (Fig. 4e): 0.45 and 0.42
  TG (Fig. 4e): 1.205 and 1.168
VD
  NRs assays: VDR (relative to ctrl, replicates): 0.7 and 0.81 and 0.9
